According to patent US4239778A, “Azaprostanoic acid analogs and their use as inhibitors of platelet aggregation” (priority 1978, dated 1980):
Entries after “also recorded” stand apart in the source; their conditions may differ. Read-outs that look alike come from different tables or passages of the source.

Columns and labels:
[1] = system: platelet aggregation; conditions: cited from earlier work
[2] = system: cyclooxygenase; conditions: cited from earlier work
[3] = system: thromboxane synthetase; conditions: cited from earlier work
[4] = system: PGE2; conditions: cited from earlier work
[5] = system: prostacyclin synthetase; conditions: cited from earlier work
[6] = in vivo; cited from earlier work
[7] = system: platelet conversion of AA to thromboxane B2 (TXB2); test: TXB2 formation in platelet rich plasma aggregated with arachidonic acid (radioimmunoassay); type: cell-based
Method: (§1) Platelet rich plasma was aggregated with 500 μM arachidonic acid and three minutes following arachidonate addition, aliquots of the plasma were drawn for TXB2 determinations.

[8] = system: platelet rich plasma; test: Platelet aggregation with 500 μM arachidonic acid (Table IV); type: cell-based
Method: as §1

[9] = system: platelets; test: PGH2-induced platelet aggregation (Table V); type: cell-based
[10] = system: thromboxane synthetase; test: TXB2 formation in response to added PGH2 in indomethacin-treated resuspended platelets (thromboxane synthetase); type: cell-based
Method: This possibility was examined by measuring the effect of 13-APA on TXB2 formation in response to added PGH2 (0.13 μg/ml). Platelets were isolated from EDTA-treated ([…]) PRP by centrifugation at 800 xg for 15 minutes. The platelet pellet was resuspended by gentle swirling in calcium-free Tyrode buffer (pH 7.4). […] Moreover, if it is assumed that TXA2 is the final mediator involved in prostaglandin activation, 13-APA must act to block the interaction of TXA2 with the platelet receptor.

[11] = system: platelet cAMP levels; conditions: cited from earlier work
[12] = system: platelet receptor; test: Platelet aggregation induced by direct agonist 9-epoxy CEE; type: cell-based; conditions: 3 μM 9-epoxy CEE
Description: Such inhibitory activity has not been previously reported for any compound which selectively blocks AA-induced aggregation.

[13] = system: mice; test: Observation of mice after 30 mg/kg 13-APA; type: in vivo, mouse; conditions: months after dose
Method: (§2) Swiss Webster mice (25 gm) maintained on a Purina diet were injected intraperitoneally with either 0.1 ml corn oil or 0.1 ml corn oil containing 13-azaprostanoic acid (13-APA) of Example 5. The dose of 13-APA employed was 30 mg/kg. One hour subsequent to injection, 0.05 ml of a sodium arachidonate solution was administered by rapid I.V. through the tail vein to both control and drug-treated mice. The arachidonate was dissolved in 90% saline and 10% ethanol (95%).

[14] = system: Swiss Webster mice; type: in vivo, mouse; conditions: 30 mg/kg i.p.
Method: as §2

[15] = AA 500 μM + imidazole 100 μg/ml
[16] = AA 500 μM + imidazole 200 μg/ml
[17] = 1 h before I.V. arachidonate (100 mg/kg), number of mice of 4

For `CCCCCC/C=C/C1C2CC(N=N2)C1C/C=C\CCCC(=O)O` (centres unmarked) [azo prostanoic acid analog], the “effect on platelet aggregation (in words)” value [1] is listed as “inhibitor of platelet aggregation induced by PGH2, arachidonic acid, or collagen, and of the second wave of ADP or epinephrine-induced aggregation”, the “effect on platelet aggregation (in words)” value ([1]; listed as azo analog) is listed as “suppressed the attendant aggregation induced by arachidonate in a parallel, concentration-dependent fashion” and the “inhibition of prostaglandin biosynthesis / cyclooxygenase (in words)” value [2] is listed as “cyclooxygenase enzyme was not affected”. The “inhibition of thromboxane synthetase (in words)” value [3] was “potent inhibitor of thromboxane synthetase”, the “inhibition of thromboxane synthetase (in words)” value ([3]; listed as azo analog) was “competitive inhibitor of PGH2 binding to the thromboxane synthetase enzyme; also recorded: selectively inhibit thromboxane synthetase in a concentration dependent fashion” and the “PGE2 formation (in words)” value [4] was “increase in PGE2”. The “inhibition of prostacyclin synthetase (in words)” value [5] was “inhibitory activity may also extend to prostacyclin synthetase”.
For `CC(=O)Oc1ccccc1C(=O)O` [aspirin], the “inhibition of prostaglandin biosynthesis / cyclooxygenase (in words)” value [2] is listed as “inhibit prostaglandin biosynthesis by blocking the conversion of substrate fatty acids to endoperoxides” and the “bleeding times (in words)” value [6] is listed as “prolong bleeding times”.
For `c1c[nH]cn1` [imidazole], the “effect on platelet aggregation (in words)” value [1] is listed as “erratic; also recorded: potentiate aggregation in washed platelets”, the TXB2 ([7]; AA 500 μM + imidazole 20 μg/ml) is listed as 669 ± 33 ng/mL and the TXB2 [7, 15] is listed as 264 ± 7 ng/mL. The TXB2 [7, 16] was 138 ± 8 ng/mL, the “TXB2 formation (in words)” value ([7]; imidazole 200 μg/ml) was “substantial depression of TXB2 formation” and the “TXB2 levels versus control (in words)” value ([7]; imidazole decreased from 200 μg/ml to 20 μg/ml) was “significantly lower than control”. For the same compound, the “% Aggregation” value ([8]; AA 500 μM + imidazole 20 μg/ml) was 21%, the “% Aggregation” value [8, 15] was 11% and the “% Aggregation” value [8, 16] was 5%. The inhibition at 20 µg/mL ([8]; Platelet, read-out: inhibition of aggregation) was ~75%, the “concentration necessary to achieve inhibition of thromboxane synthetase” value [3] was 2 mM and the “inhibition of thromboxane synthetase (in words)” value [3] was “selectively inhibit thromboxane synthetase in a concentration dependent fashion”. The “inhibition of thromboxane synthetase (in words)” value ([3]; listed as Imidazole) was “selectively inhibits thromboxane synthetase”, the “% Aggregation” value ([9]; PGH2 […] + imidazole 20 μg/ml) was 30% and the “% Aggregation” value ([9]; PGH2 […] + imidazole 100 μg/ml) was 50%. For the same compound, the “% Aggregation” value ([9]; PGH2 […] + imidazole 200 μg/ml) was 60%, the TXB2 ([10]; PGH2 […] + imidazole 20 μg/ml) was 26 ± 1 ng/mL and the TXB2 ([10]; PGH2 […] + imidazole 100 μg/ml) was 6 ± 1 ng/mL. For the same compound, the TXB2 ([10]; PGH2 […] + imidazole 200 μg/ml) was 3 ± 1 ng/mL, the “thromboxane synthetase inhibition (in words)” value ([10]; imidazole 20-200 μg/ml) was “blocks thromboxane synthetase in a dose dependent manner” and the “changes in platelet cAMP levels (in words)” value [11] was “without inducing changes in platelet cAMP levels”.
`CCCCCCCN[C@H]1CCC[C@@H]1CCCCCCC(=O)O` [Example 13-APA, 13-azaprostanoic acid] gave a TXB2 ([7]; AA 500 μM + 13-APA 10 μM) of 1164 ± 25 ng/mL, a TXB2 ([7]; AA 500 μM + 13-APA 50 μM) of 750 ± 19 ng/mL and an inhibition at 50 µM ([7]; Platelet, 0.05 h, 13-APA 50 μM, read-out: decrease of TXB2 formation) of 36%. The “inhibition of aggregation (in words)” value ([8]; 13-APA 50 μM) was “completely inhibits aggregation”, the “% Aggregation” value ([8]; AA 500 μM + 13-APA 10 μM) was 80% and the “% Aggregation” value ([8]; AA 500 μM + 13-APA 50 μM) was 0%. The “inhibition of PGH2-induced aggregation (in words)” value ([9]; 13-APA 10 μM) was “completely effective in inhibiting PGH2 -induced aggregation”, the “% Aggregation” value ([9]; PGH2 […] + 13-APA 10 μM) was 0% and the “% Aggregation” value ([9]; PGH2 […] + 13-APA 50 μM) was 0%. For the same compound, the “% Aggregation” value ([9]; PGH2 […] + 13-APA 100 μM) was 0%, the “platelet production of TXB2 (in words)” value ([10]; 13-APA 100 μM) was “no effect on platelet production of TXB2” and the TXB2 ([10]; PGH2 […] + 13-APA 10 μM) was 50 ± 2 ng/mL. For the same compound, the TXB2 ([10]; PGH2 […] + 13-APA 50 μM) was 44 ± 2 ng/mL, the TXB2 ([10]; PGH2 […] + 13-APA 100 μM) was 40 ± 2 ng/mL and the “inhibition of aggregation induced by 9-epoxy CEE (in words)” value ([12]; 13-APA 100 μM) was “completely inhibited”. The inhibition at 10 µM ([12]; Platelet, 13-APA 10 μM) was ~60%, the “ill effects / toxicity (in words)” value [13] was “no ill effects are evident” and the Death [14, 17] was 0. For the same compound, the “Severe Respiratory Distress” value [14, 17] was 0 and the “symptoms of thromboembolism (in words)” value ([14]; arachidonate 100 mg/kg I.V.) was “none of the symptoms of thromboembolism”.
